Measured values as given in patent US20240058424A1, “NBP-14 FOR TREATING ALZHEIMER'S ASSOCIATED WITH DOWN'S SYNDROME” (NEURO-BIO LTD, priority 2020, published 2024).
Values joined by “and” are separate entries in the source; they are usually repeats but may differ in a detail not shown here. Identical values can stand only once. Like-named read-outs stand apart in the source and are kept apart here. Where a SMILES comes first, the peptide text is derived from it.

Experiments:
[1] = system: Iba1 (activated microglia); assay: Brain immunohistochemistry, gliosis (Iba1-positive cells); type: in vivo, mice
Description: (§1) Group 2 TG-VEH: 5xFAD mice treated with vehicle of formulation (saline).
(§2) Group 3 TG-NBP14: 5xFAD mice treated with NBP-14 at the dose 10 mg/kg.
(§3) Histological Time-Points: • After 1 single treatment at the start of treatment, in a satellite group of mice (T0W). • After 6 weeks of treatment (T6W) in a satellite group of mice. • After 14 weeks of treatment (14W) in a group of mice from NOR cohorts (analysis ongoing).
(§4) Brain samples from all Tg-5XFAD mice were fixed, cryosectioned and immunostained for detection of amyloid, phosphorylated Tau and gliosis using the antibodies listed in Table 1.
(§5) Serial sections were collected and every sixth section starting at the midline were immunostained for markers of AD pathology. A total of six sections per animal were used for quantitative analysis.
(§6) Having shown the ability of NBP-14 to reverse the cognitive decline observed in Tg-5XFAD mice as discussed above, the inventors then sought to determine the structural or physiological changes occurring in the brains of mice treated with NBP-14. […]

5xFAD mice = assay: Clinical signs during intranasal treatment of 5xFAD mice; type: in vivo; details: 30 mg/kg intranasal, dose lowered to 10 mg/kg from 2nd week
Description: Intranasal (IN, nose to brain) twice a week for 14 weeks (Volume of administration 10 μL/.

transgenic Tg-5XFAD mice [2] = assay: Behavioural scoring of grooming/sitting during NOR procedure; type: in vivo; details: chronic treatment, T1 and T2 phase of NOR procedure, 10 min each
Description: Grooming/sitting/locomotion was measured on the mice subjected to NOR testing [i.e., Wild Type data included at 14 weeks post treatment].
Behavioural scoring was assessed during the T1 (familiar) and T2 (novel) phase of NOR procedure (over 10 min each phase).

NeuN positive neurons = assay: Brain immunohistochemistry, neuronal cell count (NeuN); type: in vivo, mice; details: cortex and hippocampus
Description: as §1, §2, §3, §4, §5, §6

[3] = Blood/brain exposure to NBP-14 after intranasal administration (PK assessment); type: in vivo, mice; details: for level at 0.5 h / tissue level at time at 0.5 h: 5XFAD, mouse, inhaled or intranasal; for level at 0.5 h: blood, read-out: Blood Concentration; for tissue level at time at 0.5 h: brain, read-out: Brain Concentration
Description: Assessment of PK profile for NBP14, 10mg/kg, to allow PK/PD correlations • Satellite group of mice at T0W and T6W. • Mice from NOR test at T14W.
Group 3 TG NBP14: 5XFAD mice (n=3 for each PK) treated with NBP14 at the dose 10 mg/kg.
After 1 single treatment at the start of treatment (T0W) in a satellite group of mice.
After 6 weeks of treatment (T6W) in a satellite group of mice. The day of PK profile mice were treated with NBP14.
After 14 weeks of treatment (14W) in 2 group of mice from NOR cohorts.
On the day of PK study, mice were treated with NBP14 at 10mg/kg (IN) and blood/brain collected at 30 minutes after treatment.
An additional group of mice was subjected to blood/brain collection for NBP14 exposure without treatment on the same day at the terminal time point, after 14 weeks of treatment, to evaluate an eventual accumulation of test compound (table 1).
The inventors measured the concentration of nasally applied NBP-14 in the blood and the brain of mice, to determine whether NBP-14 was capable of crossing the blood brain barrier when applied intranasally.

β-amyloid = assay: Brain immunohistochemistry, β-amyloid (6E10 antibody); type: in vivo, mice; details: for Mean intensity of β-amyloid (6E10) compared to vehicle: 6 weeks of treatment
Description: as §1, §2, §3, §4, §5
(§7) Having shown the ability of NBP-14 to reverse the cognitive decline observed in Tg-5XFAD mice as discussed above, the inventors then sought to determine the structural or physiological changes occurring in the brains of mice treated with NBP-14. The inventors utilised histological staining of the brain to determine the changes of various brain-located markers (i.e. phosphorylated Tau, NeuN, (3-amyloid, and Ibal) that are associated with cognitive decline in both 5XFAD mice and also mice that had been treated with NBP-14. These biomarkers were measured after acute treatment with NBP-14 and also six weeks after treatment.

phosphorylated Tau = assay: Brain immunohistochemistry, phosphorylated Tau (AT180, AT8); type: in vivo, mice; details: for Intracellular phosphorylated Tau immunoreactivity (AT180): hippocampus and cortex of 5XFAD mice
Description: as §1, §2, §3, §4, §5, §7

transgenic Tg-5XFAD mice [4] = assay: Novel Object Recognition (NOR) test for cognitive readout; type: in vivo
Text: Assessment of Novel Object Recognition (NOR) test at the following time points: • T0W, basal NOR behaviour immediately before starting of the experiment. • T6W, 6 weeks after starting of treatment. • T14W, 14 weeks after starting of treatment.
Group 1 WT mice (n=15) used as control animal during the experimental procedure. No subject to treatment.
Group 2 TG VEH: 5XFAD mice (n=14) treated with vehicle of formulation (saline).
Group 3 TG NBP14: 5XFAD mice (n=28) treated with NBP14 at the dose 10 mg/kg.
NOR behavioural assessment time points: • Immediately before start of treatment (T0W) • 6 weeks after start of treatment (T6W) • 14 weeks after start of treatment (T14W)
Behaviour recorded on video for subsequent scoring for the object exploration. Object investigation has been defined as directing the nose towards the object (i.e., sniffing or touching with the nose) at a distance of 2 cm or less. Climbing and sitting on the objects is not considered to be object examination.
A criterion of minimal level of object exploration was used in the study to exclude animals with naturally low levels of spontaneous exploration: mice having a minimal level of object exploration of lOs during the test trail will be included in the study.
Results were expressed as the total time spent (seconds) by animal towards the objects. The recognition index (RI) was also calculated as follows: (time exploring the novel object)/(time exploring novel+familiar)*100.
The inventors utilised a “novel object recognition” test, which measures the difference of the time spent exploring an unknown (i.e. novel) object versus a known or familiar object to determine the ability of mice to discriminate between novel and familiar objections that can be used as in indication of memory. The inventors used this test to determine the ability of NBP-14 to reverse memory decline in the transgenic mouse, Tg 5XFAD, predisposed to develop amyloid precursor protein (APP) and therefore amyloid plaques, and ultimately, dementia.
The inventors then determined the recognition index of mice. A recognition index above 50% reflects the ability of mice to explore an unfamiliar object (novel) than a recently presented object.

[5] = acute treatment, cortex and hippocampus, visual inspection
[6] = 10 mg/kg, 5XFAD mice, 10 mg/kg intranasal twice a week, T = 14W [terminal], sampling 30 min after administration
[7] = T = 14W [terminal], treated 14 weeks but no treated last day

## CSCC[C@@H]1NC(=O)[C@H](Cc2ccc(O)cc2)NC(=O)[C@H](CO)NC(=O)[C@H](CO)NC(=O)[C@H](Cc2c[nH]c3ccccc23)NC(=O)[C@H](CCCNC(=N)N)NC(=O)[C@H](Cc2c[nH]cn2)NC(=O)[C@H](Cc2ccccc2)NC(=O)[C@H](CCC(=O)O)NC(=O)[C@H](C)NC(=O)[C@H](CCCCN)NC(=O)[C@H](Cc2c[nH]c3ccccc23)NC(=O)[C@H](Cc2c[nH]cn2)NC(=O)[C@H](C(C)C)NC1=O [NBP-14] (HELM PEPTIDE1{A.E.F.H.R.W.S.S.Y.M.V.H.W.K}$PEPTIDE1,PEPTIDE1,1:R1-14:R2$$$V2.0)
[1]; 6 weeks of treatment, hippocampus
  Gliosis (Iba1-positive cells) compared to vehicle: significant (P<0.005) decrease
[1]; [5]
  Total number or density of Iba1-positive cells compared to vehicle: no differences
5xFAD mice
  Clinical signs: relevant clinical sign
Transgenic Tg-5XFAD mice [2]
  Reduction in sitting behaviour seen in vehicle-treated Tg-5XFAD mice: reversed
NeuN positive neurons; 6 weeks of treatment
  Total number or density of NeuN positive neurons compared to vehicle: no differences
NeuN positive neurons; acute treatment
  Total number or density of NeuN positive neurons compared to vehicle: no differences
[3]; 5XFAD mice, 10 mg/kg intranasal, T = 0 (single treatment), sampling 30 min after administration
  Brain Concentration: bql
[3]; [6]
  level at 0.5 h: 202 ng/mL
  tissue level at time at 0.5 h: 53 ng/g
[3]; 10 mg/kg, 5XFAD mice, 10 mg/kg intranasal, T = 0 (single treatment), sampling 30 min after administration
  level at 0.5 h: 44.5 ng/mL
[3]; 10 mg/kg, 5XFAD mice, 10 mg/kg intranasal twice a week, T = 6W [intermediate], sampling 30 min after administration
  tissue level at time at 0.5 h: 19.3 ng/g
[3]; T = 14W [terminal], 10 mg/kg intranasal, 30 min after administration, 10 mg/kg
  BB Ratio: 0.26 and 0.21 and 0.30
[3]; [7]
  Blood Concentration: bql
  Brain Concentration: bql
[3]; after acute treatment
  Detection of NBP-14 in the brain: no NBP-14 was observed in the brain
[3]; intranasal, after both 6 weeks and 14 weeks of treatment
  Detection of NBP-14 in the brain: detected in the brain
[3]; mice treated for 14 weeks, not treated on the day of blood/brain collection
  Accumulation of the compound: no accumulation
β-amyloid; cortex (P<0.05)
  Mean intensity of β-amyloid (6E10) compared to vehicle: significant decrease
β-amyloid; hippocampus (P<0.005)
  Mean intensity of β-amyloid (6E10) compared to vehicle: significant decrease
β-amyloid; 14 weeks, cortex, hippocampus and basal forebrain
  Extracellular amyloid plaques compared to vehicle-treated controls: significantly reduced
β-amyloid; [5]
  Mean intensity of 6E10 (Aβ) compared to vehicle: No differences
Phosphorylated Tau; 6 weeks treatment
  Intracellular phosphorylated Tau immunoreactivity (AT180): no specific intracellular phosphorylated Tau immunoreactivity was detected
Phosphorylated Tau; 14 weeks chronic treatment, cortex and hippocampus, very low levels seen in vehicle-treated mice
  pTau detected with AT8 (pS202/pT205) in non-neuronal (NeuN negative) cells: not in mice treated with NBP-14
Phosphorylated Tau; 14 weeks chronic treatment, hippocampus, cortex, basal forebrain
  pTau detection (AT180): no pTau (gold) was detected
Phosphorylated Tau; acute treatment
  Intracellular phosphorylated Tau immunoreactivity (AT180): no specific intracellular phosphorylated Tau immunoreactivity was detected
Transgenic Tg-5XFAD mice [4]; 10 mg/kg, terminal time point (14 weeks), n=27
  Recognition index (RI) compared to vehicle-treated 5xFAD mice: statistical significant difference
Transgenic Tg-5XFAD mice [4]; 5XFAD mice, 10 mg/kg intranasal twice a week, 6 weeks after treatment, n=28
  Time exploring the novel versus familiar object: no significant difference
Transgenic Tg-5XFAD mice [4]; 5XFAD mice, 10 mg/kg intranasal twice a week, 14 weeks after treatment, n=27
  Time spent exploring novel object versus familiar object: statistically significant difference
Transgenic Tg-5XFAD mice [4]; 6 week time point of NOR testing
  Cognitive performance compared to 5XFAD vehicle-treated mice: no statistically significant differences
